Earlier results, collected in patent US20160017431A1, “Methods for Predicting EGFR Tyrosine Kinase Inhibitor Efficacy” (Driver Group, priority 2014, published 2016).

Tested on: EGFR mutants carrying the T790M mutation
Settings: statement 'has been shown', no data given

## COc1cc(N2CCC(N(C)C)CC2)ccc1Nc1ncc(Cl)c(Nc2ccccc2P(C)(C)=O)n1 [AP26113]
  inhibition of the tyrosine kinase activity of EGFR mutants carrying the T790M mutation: able to inhibit the tyrosine kinase activity

## COc1cc2ncnc(Nc3ccc(F)c(Cl)c3)c2cc1NC(=O)/C=C/CN1CCCCC1 [Dacomitinib]
  inhibition of the tyrosine kinase activity of EGFR mutants carrying the T790M mutation: able to inhibit the tyrosine kinase activity
